Source: PubChem BioAssay (NCI)
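In this assay, cells in 96-well plates receive the compound at five concentrations for 48 hours. Endpoints are linearly interpolated between the surrounding concentrations. At the GI50, growth is halved. TGI denotes the concentration required for complete inhibition of growth.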

Tests used:
Experiment in all cases: inhibition of tumour cell growth, NCI panel, 48 h
CCRF-CEM leukemia = system: CCRF-CEM leukemia
EKVX NSCLC = system: EKVX NSCLC
HCT-116 colon = system: HCT-116 colon
HCT-15 colon = system: HCT-15 colon
HOP-92 NSCLC = system: HOP-92 NSCLC
K-562 leukemia = system: K-562 leukemia
SF-268 CNS = system: SF-268 CNS
SF-539 CNS = system: SF-539 CNS
TK-10 renal = system: TK-10 renal
DMS 114 small cell lung = system: DMS 114 small cell lung

| SMILES | GI50 (CCRF-CEM leukemia) | TGI (CCRF-CEM leukemia) | GI50 (EKVX NSCLC) | TGI (EKVX NSCLC) | GI50 (HCT-116 colon) | TGI (HCT-116 colon) | GI50 (HCT-15 colon) | TGI (HCT-15 colon) | GI50 (HOP-92 NSCLC) | TGI (HOP-92 NSCLC) | GI50 (K-562 leukemia) | TGI (K-562 leukemia) | GI50 (SF-268 CNS) | TGI (SF-268 CNS) | GI50 (SF-539 CNS) | TGI (SF-539 CNS) | GI50 (TK-10 renal) | TGI (TK-10 renal) | TGI (DMS 114 small cell lung) |
| --- | --- | --- | --- | --- | --- | --- | --- | --- | --- | --- | --- | --- | --- | --- | --- | --- | --- | --- | --- |
| Cc1ccc(/C=C2\CN(C(=O)C(Cl)Cl)C/C(=C\c3ccc(C)cc3)C2=O)cc1 | 0.11 µM | > 100 µM | 0.348 µM | 2.31 µM | 0.0654 µM | 0.194 µM | 0.185 µM | 0.638 µM | 1.47 µM | 3.95 µM | 0.142 µM | > 100 µM | 0.331 µM | 2.43 µM | 0.227 µM | 0.567 µM | 0.57 µM | 6.04 µM |  |
| N[C@@H]1C(=O)N2C(C(=O)OC(c3ccccc3)c3ccccc3)=C(CCl)CS[C@H]12 |  | > 61.6 µM | 60.1 µM | > 100 µM | 27.1 µM | > 76.6 µM | 37.9 µM | > 100 µM | 38.3 µM | > 71.4 µM | 15.4 µM | > 89.2 µM | 31.7 µM | 98.7 µM | 23.5 µM | 50.2 µM | 50.1 µM | > 100 µM |  |
| O=C(/C=C/c1ccco1)c1ccc(NCc2nc3ccccc3[nH]2)cc1 |  | 33.5 µM |  | 29.9 µM |  |  |  | 30.3 µM |  | 30.6 µM |  | 40.9 µM |  | 46.4 µM |  | 33.2 µM |  | 39.1 µM | 26 µM |
| O=C(CN1CCN(c2cc3c(cc2F)c(=O)c(C(=O)O)cn3C2CC2)CC1)Nc1nc(-c2ccc(Cl)cc2)cs1 | 4.39 µM | > 100 µM | 4.45 µM | > 100 µM | 3.37 µM | > 100 µM | 3.23 µM | 23.7 µM | 2.73 µM | 7.91 µM | 2.95 µM | > 100 µM | 4.19 µM | > 100 µM | 3.93 µM | > 100 µM | 4.28 µM | > 100 µM |  |
| O=C(O)c1cn(C2CC2)c2cc(N3CCN(C(=O)Nc4nc(-c5ccccc5)cs4)CC3)c(F)cc2c1=O | 0.752 µM | > 100 µM | 3.17 µM | 85.2 µM | 0.647 µM | > 100 µM | 2.27 µM | > 100 µM | 1.13 µM | 5.99 µM | 2.05 µM | > 100 µM | 0.474 µM | > 100 µM | 0.634 µM | > 100 µM | 3.93 µM | 35.1 µM |  |
| CC1=CC(=O)C(C(C)C)=CC1=Nc1cc(Br)c(O)c(Br)c1 | 2.72 µM | 18.1 µM | 4.51 µM | 36 µM | 3.39 µM | 11.6 µM | 3.85 µM | 21.1 µM | 11.5 µM | 40.8 µM | 3.92 µM | 13.4 µM | 4.49 µM | 17.2 µM | 2.29 µM | 5.96 µM | 11.7 µM | 31.4 µM |  |
| CCC/C=C1\CCC(CN(C)C)C1=O (configuration not stated) |  | 1.97 µM |  | 12.3 µM |  | 23.1 µM |  | 6.68 µM |  | 6.8 µM |  |  |  | 19.8 µM |  | 25.3 µM |  | 14.6 µM | 31.2 µM |
| CCOC(=O)c1c(C)n(Cc2ccccc2)c2c1cc(O)c1[nH]c(Cc3ccccc3)nc12 | > 21.4 µM | > 100 µM | 25.5 µM | > 79.5 µM | 5.91 µM | > 43.5 µM | 4.66 µM | > 100 µM | 20.2 µM | 68.8 µM | 0.679 µM | > 40 µM | 13.8 µM | > 100 µM | 17.1 µM | > 100 µM | 1.5 µM | 54.5 µM |  |
| COc1cc2c(cc1OC)C(Sc1ccc(SC)cc1)c1c(nc(N)c(C#N)c1N)O2 (configuration not stated) | 0.571 µM | 4.28 µM | 1.78 µM | 3.32 µM | 1.62 µM | 3.01 µM | 1.44 µM | 2.91 µM | 1.96 µM | 3.86 µM | 1.74 µM | 5.59 µM | 1.6 µM | 3.1 µM | 1.55 µM | 2.88 µM | 1.6 µM | 2.95 µM |  |
| NC(=O)c1c([N+](=O)[O-])cc(C(F)(F)F)cc1[N+](=O)[O-] |  |  |  | > 100 µM |  | > 100 µM |  |  |  | > 100 µM |  | > 100 µM |  | > 100 µM |  | > 100 µM |  | > 100 µM | 73.3 µM |
| S=c1[nH]nc(Cc2ccccc2)c(=S)[nH]1 |  | > 100 µM |  | > 31.6 µM |  | > 100 µM |  | > 100 µM |  | > 73.1 µM |  | > 100 µM |  | > 21.3 µM |  | > 100 µM |  | > 94.1 µM |  |
| O=C(CC1(O)C(=O)Nc2ccc(Br)cc21)c1ccc(Cl)cc1Cl (configuration not stated) |  | 57.1 µM |  | > 100 µM |  | > 100 µM |  | > 100 µM |  |  |  | > 100 µM |  | > 100 µM |  | > 100 µM |  | > 100 µM | 46.8 µM |
| CCC(c1ccc(OC)cc1)C(CC)c1ccc(O)c(CN2CCN(C)CC2)c1 (configuration not stated) | 5.37 µM | 20.4 µM | 5.37 µM | 19.2 µM | 3.46 µM | 14.5 µM | 2.66 µM | 7.67 µM | 2 µM | 9.64 µM | 2.71 µM | 14.8 µM | 7.66 µM | 21.5 µM | 2.66 µM | 7.98 µM | 4.48 µM | 15.6 µM |  |
| COC(=O)/C(=N/Nc1cccc(Cl)c1)C(C(=O)C(=O)Nc1cccc(Cl)c1C)c1nc2ccccc2nc1C (configuration not stated) |  | > 100 µM |  | > 100 µM |  | > 100 µM |  |  |  |  |  | > 100 µM |  | > 100 µM |  | > 100 µM |  | > 100 µM | > 100 µM |
| S=C(Nc1ccc(N=Nc2ccccc2)cc1)SCc1ccccc1 |  | 36.1 µM |  | 48.6 µM |  | 31.9 µM |  | 28.3 µM |  | 30.4 µM |  | 39.9 µM |  | 36.6 µM |  | 34.5 µM |  | 25.5 µM |  |
| CCOc1ccc2c(c1)[n+]([O-])c(-c1ccc(Br)cc1)c(N)[n+]2[O-] |  | > 100 µM |  | > 100 µM |  |  |  | > 100 µM |  |  |  | > 100 µM |  | > 100 µM |  | > 100 µM |  | > 100 µM | > 100 µM |
